According to publication PMC12299463, “Cladolosides of Groups S and T: Triterpene Glycosides from the Sea Cucumber Cladolabes schmeltzii with Unique Sulfation; Human Breast Cancer Cytotoxicity and QSAR” (Marine Drugs, 2025):
Values joined by “and” are separate entries in the source; they are usually repeats but may differ in a detail not shown here. Equal entries are not always repeated. Structures can show the parent of a compound that is named as a salt. Where two headings read alike, the source gives them in different places.

Assays:
[1] = test system: human erythrocytes; test: Hemolytic activity against human erythrocytes; format: cell-based; details: for ED50, Erythrocytes (hemolytic activity): 1 h at 37 °C
Description: A total of 450 g of human blood (B(III) Rh+) was used to obtain erythrocytes by centrifuging three times for 5 min with phosphate-buffered saline (PBS) (pH 7.4) at 4 °C on a centrifuge LABOFUGE 400R (Heraeus, Hanau, Germany). Ice-cold PBS (pH 7.4) was used for resuspension of erythrocyte residue to a final optical density of 1.5 at 700 nm. Then, 20 µL of tested compound solutions or control (cucumarioside A0-1 [15]) were added to 180 µL of erythrocyte suspension in V-bottom 96-well plates and incubated for 1 h at 37 °C. After centrifugation (900 g, 10 min, laboratory centrifuge LMC-3000 (Biosan, Riga, Latvia)), 100 µL of supernatant was transferred into new flat plates. The values of erythrocyte lysis were measured on microplate photometer Multiskan FC (Thermo Fisher Scientific, Waltham, MA, USA) at λ = 570 nm as hemoglobin concentration in supernatant. […] All the experiments were carried out in triple repetitions, p < 0.05.

[2] = test system: MCF-10A non-tumor mammary epithelial cell line; test: in vitro; format: cell-based, human
[3] = test system: MCF-7 human breast cancer cells; test: cells; format: cell-based; details: for Selectivity Index (SI), MCF-7: ratio of IC50 for healthy (MCF-10A) and MCF-7 cells;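 for all read-outs here: IC50 values, including those behind the selectivity ratio, derive from formazan absorbance at 570 nm, tested in triplicate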
[4] = test system: T-47D human breast cancer cells; test: cells; format: cell-based; details: for Selectivity Index (SI), T-47D: ratio of IC50 for healthy (MCF-10A) and T-47D cells;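 for all read-outs here: cell viability read as absorbance of formazan dye at 570 nm, each experiment run in triplicate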
[5] = test system: MDA-MB-231 triple-negative breast cancer cells; test: cells; format: cell-based, human; details: for Selectivity Index (SI), MDA-MB-231: ratio of IC50 for healthy (MCF-10A) and MDA-MB-231 cells
[6] = MTT assay, MCF-10A, read-out: Cytotoxicity, IC50, MCF-10A
[7] = MTT assay, MCF-7, read-out: Cytotoxicity, IC50, MCF-7
[8] = MTT assay, T-47D, read-out: Cytotoxicity, IC50, T-47D
[9] = MTT assay, MDA-MB-231, read-out: Cytotoxicity, IC50, MDA-MB-231

Compound | IC50 [2, 6] [µM] | IC50 [3, 7] [µM] | IC50 [4, 8] [µM] | Selectivity Index (SI), T-47D [4] | IC50 [5, 9] [µM] | Hemolytic (membranolytic) activity, in words [1] | Selectivity Index (SI), MDA-MB-231 [5] | ED50, Erythrocytes (hemolytic activity) [1] | Selectivity Index (SI), MCF-7 [3] | further results
C=C(C)CC[C@@H](O)[C@]1(C)OC(=O)C23CC=C4[C@@H](CC[C@H]5C(C)(C)[C@@H](O[C@@H]6OC[C@@H](O[C@@H]7O[C@H](CO)[C@@H](O)[C@H](O[C@@H]8O[C@H](CO)[C@@H](O)[C@H](OC)[C@H]8O)[C@H]7O)[C@H](O)[C@H]6O[C@@H]6O[C@H](C)[C@@H](O[C@@H]7OC[C@@H](O)[C@H](O[C@@H]8O[C@H](COS(=O)(=O)[O-])[C@@H](O)[C@H](OC)[C@H]8O)[C@H]7O)[C@H](O)[C@H]6O)CC[C@]45C)[C@]2(C)C[C@H](OC(C)=O)[C@@H]31.[Na+] (some centres unmarked) [Cladoloside K2 (32), cladoloside K2] | 14.5 ± 1.07 | > 20 | 14.1 ± 0.91 | 1.03 | 6.81 ± 0.73 |  |  |  |  | ED50, Erythrocytes (hemolytic activity) ([1]; listed as K2 (32)): 4.63 ± 0.41 µM; ED50, Erythrocytes (hemolytic activity) ([1]; listed as cladoloside K2 (32)): 4.63 µM
C=C(C)CC[C@@H](OC(C)=O)[C@]1(C)OC(=O)C23CC=C4[C@@H](CC[C@H]5C(C)(C)[C@@H](O[C@@H]6OC[C@@H](O[C@@H]7OC[C@@H](O)[C@H](O[C@@H]8O[C@H](CO)[C@@H](O)[C@H](OC)[C@H]8O)[C@H]7O)[C@H](O)[C@H]6O[C@@H]6O[C@H](C)[C@@H](O[C@@H]7OC[C@@H](O)[C@H](O[C@@H]8O[C@H](CO)[C@@H](O)[C@H](OC)[C@H]8O)[C@H]7O)[C@H](O)[C@H]6O)CC[C@]45C)[C@]2(C)C[C@H](OC(C)=O)[C@@H]31 (some centres unmarked) [Cladoloside G (25), cladoloside G] | > 20 | > 20 | > 20 |  | 3.95 ± 0.38 | high activity | >5.06 |  |  | ED50, Erythrocytes (hemolytic activity) ([1]; listed as G (25)): 0.35 ± 0.04 µM; ED50, Erythrocytes (hemolytic activity) ([1]; listed as cladoloside G (25)): 0.35 µM
CO[C@@H]1[C@@H](O)[C@H](O[C@@H]2[C@@H](O)[C@H](O[C@@H]3CO[C@@H](O[C@H]4CC[C@]5(C)C6=CCC78C(=O)O[C@@](C)([C@@H](CCC(C)C)OC(C)=O)[C@H]7[C@@H](OC(C)=O)C[C@@]8(C)[C@@H]6CC[C@H]5C4(C)C)[C@H](O[C@@H]4O[C@H](C)[C@@H](O[C@@H]5OC[C@@H](O)[C@H](O[C@@H]6O[C@H](CO)[C@@H](O)[C@H](OS(=O)(=O)O)[C@H]6O)[C@H]5O)[C@H](O)[C@H]4O)[C@H]3O)O[C@H](CO)[C@H]2O)O[C@H](CO)[C@H]1O (stereo partly drawn) [Cladoloside T1 (4), 3β-O-{3-O-sodium sulfate-β-D-glucopyranosyl-(1→3)-β-D-xylopyranosyl-(1→4)-β-D-quinovopyranosyl-(1→2)-[3-O-methyl-β-D-glucopyranosyl-(1→3)-β-D-glucopyranosyl-(1→4)]-β-D-xylopyranosyl}-16S,22R-diacetoxyholost-9-en] |  |  |  |  |  |  |  | 0.12 µM and 0.12 ± 0.02 µM |  | IC50 [2]: 8.41 ± 0.4 µM; IC50 [3]: 7.78 ± 0.62 µM; IC50 [4]: 7.41 ± 0.69 µM; IC50 [5]: 2.94 ± 0.21 µM
cucumarioside A0-1 [reference compound] | 7.51 ± 0.63 | 11.3 ± 1 | 8.46 ± 0.53 | 0.89 | 3.53 ± 0.54 |  | 2.13 | 1.63 ± 0.21 µM | 0.66 | 
CO[C@@H]1[C@@H](O)[C@H](O[C@@H]2[C@@H](O)[C@H](O[C@H]3[C@H](O)[C@@H](O)[C@H](O[C@H]4[C@H](O[C@H]5CC[C@]6(C)C7=CCC89C(=O)O[C@@](C)([C@@H](CCC(C)C)OC(C)=O)[C@H]8[C@@H](OC(C)=O)C[C@@]9(C)[C@@H]7CC[C@H]6C5(C)C)OC[C@@H](O[C@@H]5O[C@H](CO)[C@@H](O)[C@H](O)[C@H]5O)[C@@H]4O)O[C@@H]3C)OC[C@H]2O)O[C@H](COS(=O)(=O)[O-])[C@H]1O.[Na+] (some centres unmarked) [Cladoloside I1 (28), cladoloside I1] | 13.4 ± 0.92 | 11.2 ± 1.02 | 9.91 ± 0.68 | 1.36 | 3.02 ± 0.28 |  | 4.45 |  | 1.20 | ED50, Erythrocytes (hemolytic activity) ([1]; listed as I1 (28)): 1.72 ± 0.10 µM; ED50, Erythrocytes (hemolytic activity) ([1]; listed as cladoloside I1 (28)): 1.72 µM
CO[C@@H]1[C@@H](O)[C@H](O[C@@H]2[C@@H](O)[C@H](O[C@@H]3CO[C@@H](O[C@H]4CC[C@]5(C)C6=CCC78C(=O)O[C@@](C)([C@@H](CCC(C)C)OC(C)=O)[C@H]7[C@@H](OC(C)=O)C[C@@]8(C)[C@@H]6CC[C@H]5C4(C)C)[C@H](O[C@@H]4O[C@H](C)[C@@H](O[C@@H]5OC[C@@H](O)[C@H](O[C@@H]6O[C@H](COS(=O)(=O)[O-])[C@@H](O)[C@H](OC)[C@H]6O)[C@H]5O)[C@H](O)[C@H]4O)[C@H]3O)O[C@H](CO)[C@H]2O)O[C@H](CO)[C@H]1O.[Na+] (some centres unmarked) [Cladoloside K1 (31), cladoloside K1] | > 20 | > 20 | 12.1 ± 1 | >1.65 | 5.83 ± 0.41 |  |  |  |  | ED50, Erythrocytes (hemolytic activity) ([1]; listed as K1 (31)): 0.31 ± 0.02 µM; ED50, Erythrocytes (hemolytic activity) ([1]; listed as cladoloside K1 (31)): 0.31 µM
C=C(C)CCC[C@]1(C)OC(=O)C23CC=C4[C@@H](CC[C@H]5C(C)(C)[C@@H](O[C@@H]6OC[C@@H](O[C@@H]7O[C@H](CO)[C@@H](O)[C@H](O[C@@H]8O[C@H](COS(=O)(=O)[O-])[C@@H](O)[C@H](OC)[C@H]8O)[C@H]7O)[C@H](O)[C@H]6O[C@@H]6O[C@H](C)[C@@H](O[C@@H]7OC[C@@H](O)[C@H](O[C@@H]8O[C@H](CO)[C@@H](O)[C@H](OC)[C@H]8O)[C@H]7O)[C@H](O)[C@H]6O)CC[C@]45C)[C@]2(C)CC(=O)[C@@H]31.[Na+] (some centres unmarked) [Cladoloside L1 (33), Cladoloside L1] | 17.9 ± 1.12 | 12.7 ± 1.01 | 9.03 ± 0.81 | 1.98 | 13.4 ± 1.08 | strong hemolytics | 1.34 | 0.20 ± 0.02 µM | 1.41 | 
C=C(C)CCC[C@]1(C)OC(=O)C23CC=C4[C@@H](CC[C@H]5C(C)(C)[C@@H](O[C@@H]6OC[C@@H](O[C@@H]7O[C@H](CO)[C@@H](O)[C@H](O[C@@H]8O[C@H](CO)[C@@H](O)[C@H](OC)[C@H]8O)[C@H]7O)[C@H](O)[C@H]6O[C@@H]6O[C@H](C)[C@@H](O[C@@H]7O[C@H](CO)[C@@H](O)[C@H](O[C@@H]8O[C@H](CO)[C@@H](O)[C@H](OC)[C@H]8O)[C@H]7O)[C@H](O)[C@H]6O)CC[C@]45C)[C@]2(C)CC(=O)[C@@H]31 (some centres unmarked) [Cladoloside M1 (35), cladoloside M1] | 9.81 ± 0.86 | > 20 | 17.1 ± 1.52 | 0.57 | 5.05 ± 0.38 |  | 1.94 | 0.08 ± 0.01 µM |  | Hemolytic (membranolytic) activity, in words ([1]; listed as M1 (35)): strong hemolytics; Hemolytic (membranolytic) activity, in words ([1]; listed as cladoloside M1 (35)): most active compound
CO[C@@H]1[C@@H](O)[C@H](O[C@@H]2[C@@H](O)[C@H](O[C@@H]3CO[C@@H](O[C@H]4CC[C@]5(C)C6=CCC78C(=O)O[C@@](C)([C@@H](CCC(C)C)OC(C)=O)[C@H]7[C@@H](OC(C)=O)C[C@@]8(C)[C@@H]6CC[C@H]5C4(C)C)[C@H](O[C@@H]4O[C@H](C)[C@@H](O[C@@H]5OC[C@@H](O)[C@H](O[C@@H]6O[C@H](CO)[C@@H](O)[C@H](OC)[C@H]6O)[C@H]5O)[C@H](O)[C@H]4O)[C@H]3O)O[C@H](CO)[C@H]2O)O[C@H](CO)[C@H]1O (some centres unmarked) [Cladoloside C1 (14), cladoloside C1] | > 20 | > 20 | > 20 |  | 15.3 ± 0.71 |  |  |  |  | ED50, Erythrocytes (hemolytic activity) ([1]; listed as C1 (14)): 0.15 ± 0.02 µM; ED50, Erythrocytes (hemolytic activity) ([1]; listed as cladoloside C1 (14)): 0.15 µM
CO[C@@H]1[C@@H](O)[C@H](O[C@@H]2[C@@H](O)[C@H](O[C@H]3[C@H](O)[C@@H](O)[C@H](O[C@H]4[C@H](O[C@H]5CC[C@]6(C)C7=CCC89C(=O)O[C@@](C)(CCC=C(C)C)[C@H]8C(=O)C[C@@]9(C)[C@@H]7CC[C@H]6C5(C)C)OC[C@@H](O)[C@@H]4O)O[C@@H]3C)OC[C@H]2O)O[C@H](CO)[C@H]1O (some centres unmarked) [A4 (8), cladoloside A4] | > 20 | > 20 | > 20 |  | > 20 | weakest effect from the series |  | 13.60 ± 0.70 µM |  | 
